Results reported in patent publication US20080275058A1, “N-Substituted-1H-Quinoline-2,4-Diones, Preparation Method Thereof, And Pharmaceutical Composition Containing The Same” (KOREA RESEARCH INSTITUTE OF CHEMICAL TECHNOLOGY, priority 2005, published 2008).
Where two headings read alike, the source gives them in different places.

Tests used:
hD3 = biological target: T1, hD3 (Homo sapiens, UniProt P35462); experiment: Radioligand binding, dopamine D3 ([3H]spiperone); details: Table 4; [3H]spiperone 1 nM; read-out: Binding affinity, IC50 (nM) D3
T1 construct: purchased BioSignal Packard Inc., Montreal, Canada
T1 sequence (P35462 whole entry): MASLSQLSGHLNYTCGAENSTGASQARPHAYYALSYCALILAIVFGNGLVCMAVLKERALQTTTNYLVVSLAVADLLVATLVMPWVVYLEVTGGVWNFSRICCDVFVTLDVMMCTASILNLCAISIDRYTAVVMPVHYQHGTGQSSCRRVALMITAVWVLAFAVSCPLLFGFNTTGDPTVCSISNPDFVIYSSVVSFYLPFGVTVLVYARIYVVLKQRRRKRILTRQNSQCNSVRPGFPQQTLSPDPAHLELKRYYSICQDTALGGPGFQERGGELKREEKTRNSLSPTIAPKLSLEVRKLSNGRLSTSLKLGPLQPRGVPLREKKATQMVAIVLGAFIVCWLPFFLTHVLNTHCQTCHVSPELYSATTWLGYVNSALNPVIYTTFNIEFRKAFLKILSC
Protocol: (§1) 2-2: Binding assays of Dopamine Receptor Family
(§2) The radioligands used were [^3H] spiperone (for hD2L and hD3 receptors, 1 nM) and [^3H] YM-09151-2 (for hD4.2 receptor, 0.06 nM). Radioligand bindings were performed by the protocols provided by the supplier of receptor membranes (BioSignal Packard Inc., Montreal, Canada). Briefly, the buffer used in D2 or D3 receptor binding assay was 50 mM Tris-HCl (pH 7.4), 10 mM MgCl2, 1 mM EDTA, or 50 mM Tris-HCl (pH 7.4), 5 mM MgCl2, 5 mM EDTA, 5 mM KCl, 1.5 mM CaCl2, 120 mM NaCl, respectively. In [^3H] YM-09151-2 receptor binding assays, the buffer containing 50 mM Tris-HCl (pH 7.4), 5 mM MgCl2, 5 mM EDTA, 5 mM KCl and 1.5 mM CaCl2 was used. […] Competition binding studies were carried out with 7-8 concentrations of the test compound run in duplicate tubes, and isotherms from three assays were calculated by computerized nonlinear regression analysis (GraphPad Prism Program, San Diego, […]) to yield median inhibitory concentration (IC50) values.

5-HT1a = biological target: T2, 5-HT1a (Homo sapiens, UniProt P08908); experiment: Radioligand binding, 5-HT1a ([3H]8-OH-DPAT); details: Table 4; [3H]8-OH-DPAT 0.5 nM; read-out: Binding affinity, IC50 (nM) 5-HT1a
T2 construct: purchased Euroscreen/BioSignal Packard Inc
T2 sequence (P08908 1-422): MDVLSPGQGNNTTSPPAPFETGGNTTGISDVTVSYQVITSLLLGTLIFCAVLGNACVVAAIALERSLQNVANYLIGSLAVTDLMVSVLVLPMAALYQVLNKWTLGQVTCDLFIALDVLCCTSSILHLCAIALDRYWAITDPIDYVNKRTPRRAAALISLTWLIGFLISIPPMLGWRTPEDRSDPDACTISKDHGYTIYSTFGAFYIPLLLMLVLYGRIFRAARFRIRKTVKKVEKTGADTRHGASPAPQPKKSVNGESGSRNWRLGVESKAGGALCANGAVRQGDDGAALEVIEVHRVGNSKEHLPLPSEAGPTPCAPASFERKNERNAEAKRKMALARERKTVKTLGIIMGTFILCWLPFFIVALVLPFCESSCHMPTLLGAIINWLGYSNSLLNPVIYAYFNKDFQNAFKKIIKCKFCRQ
Protocol: Radioligand bindings were performed according to the test method provided by the supplier of receptor membrane (Euroscreen/BioSignal Packard Inc.). The detailed assay conditions and the results were shown in the following Table 3 and Table 4, respectively.

5-HT2c = biological target: T3, 5-HT2c (Homo sapiens, UniProt P28335); experiment: Radioligand binding, 5-HT2c ([3H]Mesulergine); details: Table 4; [3H]Mesulergine 1 nM; read-out: Binding affinity, IC50 (nM) 5-HT2c
T3 construct: purchased Euroscreen/BioSignal Packard Inc
T3 sequence (P28335 33-458): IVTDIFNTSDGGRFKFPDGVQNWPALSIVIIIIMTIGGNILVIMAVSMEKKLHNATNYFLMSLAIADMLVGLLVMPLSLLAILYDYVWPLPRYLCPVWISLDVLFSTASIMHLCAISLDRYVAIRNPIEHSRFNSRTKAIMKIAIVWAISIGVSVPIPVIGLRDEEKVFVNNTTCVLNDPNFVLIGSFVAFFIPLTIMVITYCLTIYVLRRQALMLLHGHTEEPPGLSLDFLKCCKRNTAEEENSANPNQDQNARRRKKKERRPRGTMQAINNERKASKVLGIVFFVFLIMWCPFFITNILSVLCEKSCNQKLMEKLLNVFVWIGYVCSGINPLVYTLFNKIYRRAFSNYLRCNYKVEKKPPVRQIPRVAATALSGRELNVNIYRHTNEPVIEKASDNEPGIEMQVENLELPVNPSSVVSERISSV

hD2L = biological target: T4, hD2L (Homo sapiens, UniProt P14416); experiment: Radioligand binding, dopamine D2 ([3H]spiperone); details: Table 4; [3H]spiperone 1 nM; read-out: Binding affinity, IC50 (nM) D2
T4 construct: purchased BioSignal Packard Inc., Montreal, Canada
T4 sequence (P14416 whole entry): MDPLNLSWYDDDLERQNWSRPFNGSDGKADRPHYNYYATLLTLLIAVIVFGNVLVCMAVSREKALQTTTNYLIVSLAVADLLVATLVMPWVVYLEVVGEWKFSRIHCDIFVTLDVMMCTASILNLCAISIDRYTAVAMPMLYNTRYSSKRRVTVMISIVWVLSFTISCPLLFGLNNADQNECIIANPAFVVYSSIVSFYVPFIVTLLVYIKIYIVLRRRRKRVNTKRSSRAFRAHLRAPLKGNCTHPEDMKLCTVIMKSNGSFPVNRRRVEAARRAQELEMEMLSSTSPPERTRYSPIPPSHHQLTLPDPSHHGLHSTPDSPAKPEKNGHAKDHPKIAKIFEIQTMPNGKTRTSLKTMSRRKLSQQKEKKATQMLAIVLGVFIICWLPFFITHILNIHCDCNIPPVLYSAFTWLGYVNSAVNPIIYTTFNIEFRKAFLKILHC
Protocol: as §1, §2

5-HT2a = biological target: T5, 5-HT2a (Homo sapiens, UniProt P28223); experiment: Radioligand binding, 5-HT2a ([3H]Ketanserin); details: Table 4; [3H]Ketanserin 1 nM; read-out: Binding affinity, IC50 (nM) 5-HT2a
T5 construct: purchased Euroscreen/BioSignal Packard Inc
T5 sequence (P28223 whole entry): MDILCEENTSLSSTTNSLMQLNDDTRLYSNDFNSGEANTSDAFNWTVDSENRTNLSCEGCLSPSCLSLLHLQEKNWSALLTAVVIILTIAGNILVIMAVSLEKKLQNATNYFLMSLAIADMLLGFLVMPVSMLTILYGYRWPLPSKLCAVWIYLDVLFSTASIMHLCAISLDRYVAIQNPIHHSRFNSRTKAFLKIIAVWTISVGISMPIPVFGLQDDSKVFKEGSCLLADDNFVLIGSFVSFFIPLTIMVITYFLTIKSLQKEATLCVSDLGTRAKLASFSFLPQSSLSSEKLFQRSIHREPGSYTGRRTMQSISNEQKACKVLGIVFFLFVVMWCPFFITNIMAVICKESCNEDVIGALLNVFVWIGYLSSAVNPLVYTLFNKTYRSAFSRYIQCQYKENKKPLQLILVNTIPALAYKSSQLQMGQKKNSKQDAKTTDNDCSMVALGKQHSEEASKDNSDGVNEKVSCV

5-HT7 = biological target: T6, 5-HT7 (Homo sapiens, UniProt P34969); experiment: Radioligand binding, 5-HT7 ([3H]LSD); details: Table 4; [3H]LSD 3 nM; read-out: Binding affinity, IC50 (nM) 5-HT7
T6 construct: purchased Euroscreen/BioSignal Packard Inc
T6 sequence (P34969 whole entry): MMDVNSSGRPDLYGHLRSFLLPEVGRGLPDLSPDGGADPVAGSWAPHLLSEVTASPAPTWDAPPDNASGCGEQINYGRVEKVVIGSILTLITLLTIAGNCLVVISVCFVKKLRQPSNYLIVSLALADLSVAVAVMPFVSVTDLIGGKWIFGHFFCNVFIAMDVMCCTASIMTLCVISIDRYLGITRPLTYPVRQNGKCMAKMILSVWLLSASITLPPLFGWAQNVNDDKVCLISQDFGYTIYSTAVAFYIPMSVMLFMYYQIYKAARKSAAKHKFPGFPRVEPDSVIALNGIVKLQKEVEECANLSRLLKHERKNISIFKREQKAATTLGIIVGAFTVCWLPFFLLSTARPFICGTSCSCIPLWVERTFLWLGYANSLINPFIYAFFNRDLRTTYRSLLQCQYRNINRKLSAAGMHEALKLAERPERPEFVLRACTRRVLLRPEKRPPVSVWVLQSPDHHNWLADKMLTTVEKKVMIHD

[1] = biological target: T7, Human serotonin 5-HT6 receptor (Homo sapiens, UniProt P50406); experiment: [3H]LSD binding assay on cloned 5-HT6 receptor membranes
T7 construct: made in house; host or cells: insect Sf21 cells (baculovirus vector BacPAK8)
T7 sequence (P50406 whole entry): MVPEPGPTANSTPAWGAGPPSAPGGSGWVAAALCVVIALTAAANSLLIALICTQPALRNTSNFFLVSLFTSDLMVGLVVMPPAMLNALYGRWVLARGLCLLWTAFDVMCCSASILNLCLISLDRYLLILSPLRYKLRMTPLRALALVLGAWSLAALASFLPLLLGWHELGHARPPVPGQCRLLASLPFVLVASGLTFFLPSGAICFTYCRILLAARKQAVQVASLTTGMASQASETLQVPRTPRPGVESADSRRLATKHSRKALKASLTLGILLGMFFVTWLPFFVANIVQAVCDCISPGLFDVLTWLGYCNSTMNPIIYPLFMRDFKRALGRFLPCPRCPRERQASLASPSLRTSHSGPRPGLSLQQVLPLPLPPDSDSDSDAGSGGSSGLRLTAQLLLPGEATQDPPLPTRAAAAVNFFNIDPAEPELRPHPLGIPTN

hD4.2 receptor = biological target: T8, hD4.2 receptor (Homo sapiens, UniProt P21917, DEL265-296); experiment: Radioligand binding, dopamine D4 ([3H]YM-09151-2); details: Table 4; [3H]YM-09151-2 0.06 nM; read-out: Binding affinity, IC50 (nM) D4
T8 construct: purchased BioSignal Packard Inc., Montreal, Canada
T8 sequence (P21917 with tags, fused parts or gaps DEL265-296): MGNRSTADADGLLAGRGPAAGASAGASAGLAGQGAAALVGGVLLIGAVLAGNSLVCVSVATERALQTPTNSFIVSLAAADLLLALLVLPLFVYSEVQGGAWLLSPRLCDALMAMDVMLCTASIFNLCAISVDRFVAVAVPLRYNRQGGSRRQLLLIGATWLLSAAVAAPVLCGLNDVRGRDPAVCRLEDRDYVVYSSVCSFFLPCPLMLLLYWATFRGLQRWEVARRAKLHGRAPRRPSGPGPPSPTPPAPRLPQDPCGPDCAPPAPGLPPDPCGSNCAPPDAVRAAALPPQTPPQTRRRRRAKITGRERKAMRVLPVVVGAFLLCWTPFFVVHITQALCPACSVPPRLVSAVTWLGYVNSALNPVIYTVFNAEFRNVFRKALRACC
Protocol: as §1, §2

D1 = D1 (Homo sapiens, UniProt P21728); experiment: Radioligand binding, dopamine D1; details: Table 4; read-out: Binding affinity, IC50 (nM) D1
Sequence of D1 (P21728 whole entry): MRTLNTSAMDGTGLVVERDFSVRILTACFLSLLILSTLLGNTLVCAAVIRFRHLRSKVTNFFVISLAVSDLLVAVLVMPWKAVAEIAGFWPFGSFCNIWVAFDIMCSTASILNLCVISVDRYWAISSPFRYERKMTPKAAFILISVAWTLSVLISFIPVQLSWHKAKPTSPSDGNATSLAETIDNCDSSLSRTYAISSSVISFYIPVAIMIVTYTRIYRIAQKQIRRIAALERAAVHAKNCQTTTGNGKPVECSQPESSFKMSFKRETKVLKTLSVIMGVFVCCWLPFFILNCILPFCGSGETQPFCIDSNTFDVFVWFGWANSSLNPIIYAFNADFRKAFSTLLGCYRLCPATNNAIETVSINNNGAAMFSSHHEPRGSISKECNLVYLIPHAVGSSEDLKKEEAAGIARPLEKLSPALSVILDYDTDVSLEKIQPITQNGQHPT

[2] = Table 2, 1.87 nM [3H]LSD, 37 C, 60 min, read-out: IC50 (nM), binding affinity to the 5-HT6 receptor
[3] = Table 4, read-out: Binding affinity, IC50 (nM) 5-HT6

| Structure (SMILES) | IC50 (hD3) [nM] | IC50 (5-HT1a) [nM] | melting point [°C] | IC50 (5-HT2c) [nM] | IC50 (hD2L) [nM] | IC50 (5-HT2a) [nM] | IC50 (5-HT7) [nM] | IC50 [1, 2] [nM] | IC50 [1, 3] [nM] | IC50 (hD4.2 receptor) [nM] | IC50 (D1) [nM] | binding affinity at 5-HT6 receptor labeled by [3H]LSD, in words ([1]; comment on Table 2) |
| --- | --- | --- | --- | --- | --- | --- | --- | --- | --- | --- | --- | --- |
| COc1ccc(CN2C(=O)C(C)(c3ccc(OC)cc3)C(=O)c3c(N4CCNCC4)cc(Cl)cc32)cc1 (centres unmarked) [Example 31, 7-Chloro-1-(4-methoxy-benzyl)-3-(4-methoxy-phenyl)-3-methyl-5-piperazin-1-yl-1H-quinoline-2,4-dione] | 8950 | 6950 | 182 to 183 | 7950 | 6430 | 8340 | 8440 | 26.5 | 21.3 | 8710 | 7550 |  |
| CC1(c2ccc(O)cc2)C(=O)c2c(N3CCNCC3)cc(Cl)cc2N(Cc2ccc(O)cc2)C1=O (centres unmarked) [Example 32, 7-Chloro-1-(4-hydroxy-benzyl)-3-(4-hydroxy-phenyl)-3-methyl-5-piperazin-1-yl-1H-quinoline-2,4-dione] | 9110 | 6580 | 241 to 242 | 7890 | 6960 | 7450 | 8310 | 1.7 | 15.2 | 9450 | 9010 | significant affinities |
| COc1ccc(C2(C)C(=O)c3c(N4CCNCC4)cc(Cl)cc3N(Cc3ccccc3Br)C2=O)cc1 (centres unmarked) [Example 35, 1-(2-Bromo-benzyl)-7-chloro-3-(4-methoxy-phenyl)-3-methyl-5-piperazin-1-yl-1H-quinoline-2,4-dione] | 9450 | 9510 | 150 to 151 | 7720 | 7150 | 7640 | 7820 | 9.2 | 16.4 | 8880 | 9750 |  |
| CC1(c2ccc(O)cc2)C(=O)c2c(N3CCNCC3)cc(Cl)cc2N(Cc2ccccc2Br)C1=O (centres unmarked) [Example 36, 1-(2-Bromo-benzyl)-7-chloro-3-(4-hydroxy-phenyl)-3-methyl-5-piperazin-1-yl-1H-quinoline-2,4-dione] | 9610 | 9320 | 264 to 265 | 7160 | 7990 | 6210 | > 10000 | 29 | 15.1 | 9000 | 6030 |  |
| COc1ccc(C2(C)C(=O)c3c(N4CCNCC4)cc(Cl)cc3N(Cc3cccnc3)C2=O)cc1 (centres unmarked) [Example 37, 7-Chloro-3-(4-methoxy-phenyl)-3-methyl-5-piperazin-1-yl-1-pyridin-3-ylmethyl-1H-quinoline-2,4-dione] | > 10000 | 9060 | 160 to 162 | 8050 | 8050 | 6020 | 5990 | 21.4 | 19.8 | 9380 | 7680 |  |
| COc1ccc(C2(C)C(=O)c3c(N4CCNCC4)cc(Cl)cc3N(Cc3ccc(-c4ccccc4)cc3)C2=O)cc1 (centres unmarked) [Example 41, 1-Biphenyl-4-ylmethyl-7-chloro-3-(4-methoxy-phenyl)-3-methyl-5-piperazin-1-yl-1H-quinoline-2,4-dione] | 9000 | 7810 | 142 to 144 | 8090 | 7680 | 8470 | 7010 | 351 | 15.5 | 9110 | 6000 |  |
| CC1(c2ccc(O)cc2)C(=O)c2c(N3CCNCC3)cc(Cl)cc2N(Cc2ccc(-c3ccccc3)cc2)C1=O (centres unmarked) [Example 42, 1-Biphenyl-4-ylmethyl-7-chloro-3-(4-hydroxy-phenyl)-3-methyl-5-piperazin-1-yl-1H-quinoline-2,4-dione] | 9210 | 6640 | 240 to 241 | 7600 | 6850 | 8190 | 6730 | 164 | 16.1 | 9410 | 6120 |  |
| COc1ccc(C2(C)C(=O)c3c(N4CCNCC4)cc(Cl)cc3N(Cc3nc4ccccc4[nH]3)C2=O)cc1 (centres unmarked) [Example 43, 1-(1H-Benzoimidazol-2-ylmethyl)-7-chloro-3-(4-methoxy-phenyl)-3-methyl-5-piperazin-1-yl-1H-quinoline-2,4-dione] | 9440 | 8020 | 178 to 179 | 7890 | 9010 | 5800 | 9520 | 137 | 19.3 | 9470 | 6350 |  |
